Experimental data as given in US9422263B2, “Fluoro-substituted 3,5-dicyano-4-(1H-indazol-5-yl)-2,6-dimethyl-1,4-dihydropyridine derivatives and methods of use thereof” (BAYER PHARMA AKTIENGESELLSCHAFT, priority 2009, dated 2016).

Legend:
[1] = Pharmacokinetics after peroral administration of test compounds; assay type: in vivo, rat; settings: for in vivo PK, rat p.o. F / in vivo PK, rat p.o. AUCnorm: male Wistar rats; for in vivo PK, rat p.o. F: bioavailability; for in vivo PK, rat p.o. AUCnorm: dose and body weight-normalized AUC; for Fraction absorbed fabs, calc: rat p.o., fabs,calc=[F/Fmax,calc]*100
Protocol: Pharmacokinetics after Peroral Administration of Test Compounds: Male Wistar rats (Harlan Laboratories) are anesthetized and a catheter is inserted into the jugular vein of the rat. The next day, a defined dose of the test compound is administered perorally. Blood samples are collected through the jugular catheter during the next 24 h (8-11 time points). Blood is centrifuged in heparin-tubes, and each plasma sample is treated with acetonitrile for protein precipitation. After centrifugation, the test compound in the supernatant is quantified using an LC-MS/MS method. The determined plasma concentrations are used for the determination of pharmacokinetic parameters, such as AUC (area under the plasma concentration vs. time curve), Cmax (highest test compound concentration observed in plasma following administration), t1/2 (half-life) and F (bioavailability). The fraction of the dose absorbed (fabs,calc) is calculated by the equation fabs,calc=[F/Fmax,calc]*100, wherein F is the determined bioavailability after peroral administration and Fmax,calc is the theoretically maximum achievable bioavailability considering the determined blood clearance and assuming that the test compound is completely absorbed.

[2] = Caco-2 permeability assay; assay type: in vitro ADME; settings: human, apical to basolateral, 2 h at 37° C., Table 3, read-out: Caco-2 permeability PappA-B
Source text: Caco-2 Permeability Assay:
The in vitro permeation of a test compound across a Caco-2 cell monolayer is a well-established assay system to predict the permeability from the gastro-intestinal tract [cf. P. Artursson and J. Karlsson: Correlation between oral drug absorption in humans and apparent drug permeability coefficients in human intestinal epithelial (Caco-2) cells, Biochem. Biophys. 175 (3), 880-885 (1991)]. The permeability of the compounds of the present invention in such Caco-2 cells was determined as described below:
Human caco-2 cells (ACC No. 169, DSMZ, German Collection of Microorganisms and Cell Cultures, Braunschweig, Germany) are seeded on 24-well insert plates and are allowed to grow for 14-16 days. For permeability studies, the test compounds are dissolved in DMSO and diluted to the final test concentration of 2 μM with transport buffer [Hanks' Buffered Salt Solution, Gibco/Invitrogen, further supplemented with glucose (final concentration 19.9 mM) and HEPES (final concentration 9.8 mM)]. For determination of the apical to basolateral permeability (PappA-B), the test compound solution is added to the apical side of the cell monolayer and transport buffer to the basolateral side of the monolayer; for determination of the basolateral to apical permeability (PappB-A), the test compound solution is added to the basolateral side of the cell monolayer and transport buffer to the apical side of the monolayer. Samples are taken from the donor compartment at the beginning of the experiment to confirm mass balance. After an incubation of 2 h at 37° C., samples are taken from both compartments. Samples are analyzed by LC-MS/MS, and the apparent permeability coefficients are calculated. Lucifer Yellow permeability is assayed for each cell monolayer to ensure cell monolayer integrity, and the permeability of Atenolol (low permeability marker) and Sulfasalazine (marker for active excretion) is determined for each batch as quality control.

in vivo PK, rat p.o. F [1] [%]	Fraction absorbed fabs, calc [1] [%]	Papp at 2 h, 2 μM [2] [×10⁻⁶ cm/s]	Structure (SMILES)	in vivo PK, rat p.o. AUCnorm [1] [kg·h/L]
33	131	16.4	CC1=C(C#N)C(c2ccc3[nH]nc(C)c3c2)C(C#N)=C(C(F)F)N1 (single isomer, unassigned) [Example 3, 2-(Difluoromethyl)-6-methyl-4-(3-methyl-1H-indazol-5-yl)-1,4-dihydropyridine-3,5-dicarbonitrile]	0.16
62	104	31.1	CC1=C(C#N)C(c2ccc3[nH]nc(C)c3c2)C(C#N)=C(C(F)(F)F)N1 (single isomer, unassigned) [Example 6]	0.70
62	67	27.1	Cc1n[nH]c2cc(F)c(C3C(C#N)=C(C(F)F)NC(C(F)F)=C3C#N)cc12 [Example 14, 2,6-Bis(difluoromethyl)-4-(6-fluoro-3-methyl-1H-indazol-5-yl)-1,4-dihydropyridine-3,5-dicarbonitrile]	4.73
